# From ChEMBL document CHEMBL4138123, “Design, synthesis and biological evaluation of novel pyrazolochalcones as potential modulators of PI3K/Akt/mTOR pathway and inducers of apoptosis in breast cancer cells” (Eur J Med Chem, 2017)
# What was measured:
# Type in all cases: functional
# 786-0 [1] = test: Cytotoxicity against human 786-0 cells assessed as cell growth at 0.01 uM after 48 hrs by sulforhodamine B assay relative to control; settings: 786-0, 48 h, read-out: Activity
# KM12 = test: Cytotoxicity against human KM12 cells assessed as growth inhibition after 48 hrs by sulforhodamine B assay; settings: KM12, 48 h
# HT-29 [2] = test: Cytotoxicity against human HT-29 cells assessed as cell growth at 0.1 uM after 48 hrs by sulforhodamine B assay relative to control; settings: HT-29, 48 h, read-out: Activity
# OVCAR-3 = test: Cytotoxicity against human OVCAR3 cells assessed as growth inhibition after 48 hrs by sulforhodamine B assay; settings: OVCAR-3, 48 h
# SK-MEL-5 = test: Cytotoxicity against human SK-MEL-5 cells assessed as cell growth at 10 uM after 48 hrs by sulforhodamine B assay relative to control; settings: SK-MEL-5, 48 h, read-out: Activity
# SW-620 = test: Cytotoxicity against human SW620 cells assessed as cell growth at 0.01 uM after 48 hrs by sulforhodamine B assay relative to control; settings: SW-620, 48 h, read-out: Activity
# SN12C [3] = test: Cytotoxicity against human SN12C cells assessed as growth inhibition after 48 hrs by sulforhodamine B assay
# BT-549 = test: Cytotoxicity against human BT549 cells assessed as growth inhibition after 48 hrs by sulforhodamine B assay; settings: BT-549, 48 h
# UO-31 = test: Cytotoxicity against human UO31 cells assessed as cell growth at 0.01 uM after 48 hrs by sulforhodamine B assay relative to control; settings: UO-31, 48 h, read-out: Activity
# SK-OV-3 = test: Cytotoxicity against human SKOV3 cells assessed as cell growth at 1 uM after 48 hrs by sulforhodamine B assay relative to control; settings: SK-OV-3, 48 h, read-out: Activity
# MDA-MB-231 = test: Cytotoxicity against human MDA-MB-231 cells assessed as cell growth at 100 uM after 48 hrs by sulforhodamine B assay relative to control; settings: MDA-MB-231, 48 h, read-out: Activity
# T47D [4] = test: Cytotoxicity against human T47D cells assessed as cell growth at 10 uM after 48 hrs by sulforhodamine B assay relative to control; settings: read-out: Activity
# SN12C [5] = test: Cytotoxicity against human SN12C cells assessed as cell growth at 0.01 uM after 48 hrs by sulforhodamine B assay relative to control; settings: read-out: Activity
# HOP-62 = test: Cytotoxicity against human HOP62 cells assessed as growth inhibition after 48 hrs by sulforhodamine B assay; settings: HOP-62, 48 h
# A498 = test: Cytotoxicity against human A498 cells assessed as cell growth at 0.01 uM after 48 hrs by sulforhodamine B assay relative to control; settings: A498, 48 h, read-out: Activity
# T47D [6] = test: Cytotoxicity against human T47D cells assessed as cell growth at 1 uM after 48 hrs by sulforhodamine B assay relative to control; settings: read-out: Activity
# M14 [7] = test: Cytotoxicity against human M14 cells assessed as cell growth at 10 uM after 48 hrs by sulforhodamine B assay relative to control; settings: M14, 48 h, read-out: Activity
# SF-539 [8] = test: Cytotoxicity against human SF539 cells assessed as cell growth at 0.01 uM after 48 hrs by sulforhodamine B assay relative to control; settings: SF-539, 48 h, read-out: Activity
# M14 [9] = test: Cytotoxicity against human M14 cells assessed as cell growth at 1 uM after 48 hrs by sulforhodamine B assay relative to control; settings: M14, 48 h, read-out: Activity
# OVCAR-5 [10] = test: Cytotoxicity against human OVCAR5 cells assessed as cell growth at 0.1 uM after 48 hrs by sulforhodamine B assay relative to control; settings: OVCAR-5, 48 h, read-out: Activity
# SF-539 [11] = test: Cytotoxicity against human SF539 cells assessed as cell growth at 1 uM after 48 hrs by sulforhodamine B assay relative to control; settings: SF-539, 48 h, read-out: Activity
# HCT-116 = test: Cytotoxicity against human HCT116 cells assessed as cell growth at 100 uM after 48 hrs by sulforhodamine B assay relative to control; settings: HCT-116, 48 h, read-out: Activity
# SNB-19 = test: Cytotoxicity against human SNB19 cells assessed as cell growth at 100 uM after 48 hrs by sulforhodamine B assay relative to control; settings: SNB-19, 48 h, read-out: Activity
# SR = test: Cytotoxicity against human SR cells assessed as cell growth at 0.1 uM after 48 hrs by sulforhodamine B assay relative to control; settings: read-out: Activity
# NCI-H322M = test: Cytotoxicity against human NCI-H322M cells assessed as cell growth at 10 uM after 48 hrs by sulforhodamine B assay relative to control; settings: read-out: Activity
# OVCAR-5 [12] = test: Cytotoxicity against human OVCAR5 cells assessed as cell growth at 10 uM after 48 hrs by sulforhodamine B assay relative to control; settings: OVCAR-5, 48 h, read-out: Activity
# RXF 393 [13] = test: Cytotoxicity against human RXF393 cells assessed as cell growth at 100 uM after 48 hrs by sulforhodamine B assay relative to control; settings: RXF 393, 48 h, read-out: Activity
# RXF 393 [14] = test: Cytotoxicity against human RXF393 cells assessed as cell growth at 0.01 uM after 48 hrs by sulforhodamine B assay relative to control; settings: RXF 393, 48 h, read-out: Activity
# NCI-H226 = test: Cytotoxicity against human NCI-H226 cells assessed as growth inhibition after 48 hrs by sulforhodamine B assay; settings: NCI-H226, 48 h
# HT-29 [15] = test: Cytotoxicity against human HT-29 cells assessed as cell growth at 10 uM after 48 hrs by sulforhodamine B assay relative to control; settings: HT-29, 48 h, read-out: Activity
# IGROV-1 = test: Cytotoxicity against human IGROV1 cells assessed as cell growth at 10 uM after 48 hrs by sulforhodamine B assay relative to control; settings: IGROV-1, 48 h, read-out: Activity
# M14 [16] = test: Cytotoxicity against human M14 cells assessed as cell growth at 100 uM after 48 hrs by sulforhodamine B assay relative to control; settings: M14, 48 h, read-out: Activity
# M14 [17] = test: Cytotoxicity against human M14 cells assessed as cell growth at 0.01 uM after 48 hrs by sulforhodamine B assay relative to control; settings: M14, 48 h, read-out: Activity
# T47D [18] = test: Cytotoxicity against human T47D cells assessed as growth inhibition after 48 hrs by sulforhodamine B assay
# 786-0 [19] = test: Cytotoxicity against human 786-0 cells assessed as cell growth at 100 uM after 48 hrs by sulforhodamine B assay relative to control; settings: 786-0, 48 h, read-out: Activity
# HCT-15 = test: Cytotoxicity against human HCT15 cells assessed as cell growth at 100 uM after 48 hrs by sulforhodamine B assay relative to control; settings: HCT-15, 48 h, read-out: Activity
smiles,measurement,setting,value
COc1cc(-c2cc(/C=C/C(=O)c3ccc(Cl)c(Cl)c3)[nH]n2)cc(OC)c1OC,growth at 0.01 µM,786-0 [1],95%
same,LC50,KM12,> 100 µM
same,TGI,KM12,> 100000 nM
same,growth at 0.1 µM,HT-29 [2],98%
same,LC50,OVCAR-3,> 100 µM
same,TGI,OVCAR-3,37.8 µM
same,growth at 10 µM,SK-MEL-5,62%
same,growth at 0.01 µM,SW-620,98%
same,LC50,SN12C [3],> 100 µM
same,TGI,SN12C [3],> 100000 nM
same,LC50 (concentration killing 50% of cells),BT-549,92.6 µM
same,TGI,BT-549,29.3 µM
same,growth at 0.01 µM,UO-31,85%
same,growth at 1 µM,SK-OV-3,89%
same,growth at 100 µM,MDA-MB-231,2%
same,growth at 10 µM,T47D [4],9%
same,growth at 0.01 µM,SN12C [5],98%
same,LC50,HOP-62,42.6 µM
same,TGI,HOP-62,7.66 µM
same,growth at 0.01 µM,A498,84%
same,growth at 1 µM,T47D [6],62%
same,growth at 10 µM,M14 [7],61%
same,growth at 0.01 µM,SF-539 [8],93%
same,growth at 1 µM,M14 [9],107%
same,growth at 0.1 µM,OVCAR-5 [10],99%
same,growth at 1 µM,SF-539 [11],88%
same,growth at 100 µM,HCT-116,-32%
same,growth at 100 µM,SNB-19,12%
same,growth at 0.1 µM,SR,89%
same,growth at 10 µM,NCI-H322M,59%
same,growth at 10 µM,OVCAR-5 [12],65%
same,growth at 100 µM,RXF 393 [13],-71%
same,growth at 0.01 µM,RXF 393 [14],96%
same,LC50 (concentration killing 50% of cells),NCI-H226,> 100 µM
same,TGI,NCI-H226,> 100 µM
same,growth at 10 µM,HT-29 [15],53%
same,growth at 10 µM,IGROV-1,75%
same,growth at 100 µM,M14 [16],20%
same,growth at 0.01 µM,M14 [17],98%
same,LC50,T47D [18],> 100 µM
same,TGI,T47D [18],15.7 µM
same,growth at 100 µM,786-0 [19],-10%
COc1cc(C(=O)/C=C/c2cc(-c3cc(OC)c(OC)c(OC)c3)n[nH]2)cc(OC)c1OC,growth at 0.01 µM,786-0 [1],101%
same,LC50,KM12,5.77 µM
same,TGI,KM12,2930 nM
same,growth at 0.1 µM,HT-29 [2],102%
same,LC50,OVCAR-3,5.79 µM
same,TGI,OVCAR-3,3.18 µM
same,growth at 10 µM,SK-MEL-5,-98%
same,growth at 0.01 µM,SW-620,96%
same,LC50,SN12C [3],5.99 µM
same,TGI,SN12C [3],2970 nM
same,LC50 (concentration killing 50% of cells),BT-549,5.6 µM
same,TGI,BT-549,2.96 µM
same,growth at 0.01 µM,UO-31,90%
same,growth at 1 µM,SK-OV-3,96%
same,growth at 100 µM,MDA-MB-231,-96%
same,growth at 10 µM,T47D [4],-82%
same,growth at 0.01 µM,SN12C [5],96%
same,LC50,HOP-62,5.74 µM
same,TGI,HOP-62,2.89 µM
same,growth at 0.01 µM,A498,95%
same,growth at 1 µM,T47D [6],57%
same,growth at 10 µM,M14 [7],-90%
same,growth at 0.01 µM,SF-539 [8],92%
same,growth at 1 µM,M14 [9],98%
same,growth at 0.1 µM,OVCAR-5 [10],101%
same,growth at 1 µM,SF-539 [11],66%
same,growth at 100 µM,HCT-116,-88%
same,growth at 100 µM,SNB-19,-98%
same,growth at 0.1 µM,SR,93%
same,growth at 10 µM,NCI-H322M,-41%
same,growth at 10 µM,OVCAR-5 [12],-91%
same,growth at 100 µM,RXF 393 [13],-98%
same,growth at 100 µM,HCT-15,-72%
same,growth at 0.01 µM,RXF 393 [14],93%
same,TGI,NCI-H226,3.05 µM
same,growth at 10 µM,HT-29 [15],-86%
same,growth at 10 µM,IGROV-1,1%
same,growth at 100 µM,M14 [16],-88%
same,growth at 0.01 µM,M14 [17],96%
same,LC50,T47D [18],5.86 µM
same,TGI,T47D [18],2.57 µM
same,growth at 100 µM,786-0 [19],-98%
COc1ccc(-c2cc(/C=C/C(=O)c3ccc4c(c3)OCO4)[nH]n2)cc1OC,GI50,KM12,620 nM
same,GI50,OVCAR-3,1960 nM
same,GI50,SN12C [3],4.96 µM
same,GI50,BT-549,1440 nM
same,GI50,HOP-62,1730 nM
same,GI50,NCI-H226,1660 nM
same,GI50,T47D [18],1360 nM
